The nature of series [1]: Drug absorption experiment in SD rats, intragastric administration (incl. absolute bioavailability). The series is classed as in vivo, SD rats (Sprague Dawley rats). Particulars: for bioavailability / F (absolute bioavailability): from AUC0-t after dosage calibration; for bioavailability: read-out: F (absolute bioavailability); for F (absolute bioavailability): intragastric 10 mg/kg vs intravenous 2.5 mg/kg. The procedure: The determination method for the absolute bioavailability of the intragastric administration of the crystal forms of the mesylate salt of the compound of formula (I) is as follows: • For intravenous administration: Healthy SD rats are randomly grouped. The tested substance is administered in a certain dosage D through the intravenous administration. The blood samples are collected through the retrobulbar venous plexus before the administration and 5 min, 15 min, 0.5 h, 1.0 h, 2.0 h, 4.0 h, 8.0 h, 12 h and 24 h after the administration, and separated to give plasmas. […] The tested substance is administered in a certain dosage D through the intragastric administration.
After dosage calibration, the absolute bioavailability F is calculated by the area under the drug concentration-time curve (AUC0-t). The calculation equation is as follows: F=(AUCintragastric×Dintravenous)/(AUCintravenous×Dintragastric)×100%.
For intragastric administration: 20 healthy (half male and half female) SD rats with 200-280 g body weight, provided by Shanghai Sippr-BK laboratory animal Co. Ltd., were assigned randomly to 5 groups.
After dosage calibration, the absolute bioavailability F was obtained by calculation of AUC0-t. The calculation equation was as follows: F=(AUCintragastric×Dintravenous)/(AUCintravenous×Dintragastric)×100%. The obtained absolute bioavailability F data are shown in the above table 2.

Series [2] in a line: Drug absorption experiment in SD rats, intravenous administration. The series is classed as in vivo, SD rats (Sprague Dawley rats). As to conditions: for half-life / AUC(0-t) / Cmax: plasma. The procedure: The determination method for the absolute bioavailability of the intragastric administration of the crystal forms of the mesylate salt of the compound of formula (I) is as follows: • For intravenous administration: Healthy SD rats are randomly grouped. The tested substance is administered in a certain dosage D through the intravenous administration. The blood samples are collected through the retrobulbar venous plexus before the administration and 5 min, 15 min, 0.5 h, 1.0 h, 2.0 h, 4.0 h, 8.0 h, 12 h and 24 h after the administration, and separated to give plasmas. The concentration of the drug in plasma is determined with the liquid chromatography-tandem mass spectrometry method to give a drug concentration-time curve. • For intragastric administration: Healthy SD rats are randomly grouped. The tested substance is administered in a certain dosage D through the intragastric administration. The intravenous blood samples are collected through the rat's retrobulbar venous plexus before the administration and 0.5, 1.0, 2.0, 4.0, 6.0, 8.0, 10, 12 and 24 h after the administration, and separated to give plasmas. The concentration of the drug in plasma is determined with the liquid chromatography-tandem mass spectrometry method to give a drug concentration-time curve.
For intravenous administration: 20 healthy (half male and half female) SD rats with 200-280 g body weight, provided by Shanghai Sippr-BK laboratory animal Co. Ltd., were assigned randomly to 5 groups. […] 0.2 ml of the intravenous blood samples were collected through the rat's retrobulbar venous plexus before the administration and 5 min, 15 min, 0.5 h, 1.0 h, 2.0 h, 4.0 h, 8.0 h, 12 h and 24 h after the administration, and separated to give plasmas.
The concentration of the drug in plasma was determined with the liquid chromatography-tandem mass spectrometry method to give a drug concentration-time curve.
T1/2: elimination half-life; Cmax: maximum drug concentration in plasma; AUC0-t: area under drug concentration-time curve.

Series [3] in a line: Solubility test under different pH buffering solutions. The series is classed as physicochemical. As to conditions: for Solubility: 24 h; for solubilities compared with the compound of formula (I) of Example 1: solvent pH values 1.0, 4.5 and 6.8, conclusion in words. The procedure: The solubilities of the crystal forms of the mesylate salt of the compound of formula (I) may be measured according to the following method: • Each substance is weighed in an appropriate amount and placed in a brown flask. Different solvents are added. The mixtures are ultrasonically treated for 20 seconds. After the mixtures are uniformly dispersed, the mixtures are shaked at 25° C., 200 rpm for 24 h, then removed, and separated by centrifugation at 12000 rpm for 10 mins. The supernatants are removed by suction and diluted to a certain fold with the corresponding solvent. Then, the concentrations of the resulting solutions are determined by HPLC and their pH values are measured.
The compound of formula (I) of Example 1, Form I of the mesylate salt of the compound of formula (I), and Form II of the mesylate salt of the compound of formula (I) were investigated for the solubilities under different pH buffering solutions.
Test method: Each substance was weighed in an appropriate amount and placed in a brown flask. Different solvents were added. The mixtures were ultrasonically treated for 20 seconds. After the mixtures were uniformly dispersed, the mixtures were shaked at 25° C., 200 rpm for 24 h, then removed, and separated by centrifugation at 12000 rpm for 10 mins. The supernatants were removed by suction and diluted to a certain folds with the corresponding solvent. Then, the concentrations of the resulting solutions were determined by HPLC and their pH values were measured.

Where [4] appears, read: Acetate buffering solution at pH = 4.5, 25° C.
The mark [5] stands for this setting: Phosphate buffering solution at pH = 6.8, 25° C.
Where [6] appears, read: intragastric, dosage 10 mg/kg, plasma.

This is an account of results in patent publication US10550101B2, “Crystalline forms of mesylate salt of pyridinyl amino pyrimidine derivative, preparation methods therefor, and applications thereof” (SHANGHAI ALLIST PHARMACEUTICAL AND MEDICAL TECHNOLOGY …, priority 2016, dated 2020).

≈ marks a conversion by molar mass, not a printed value. Where a name gives a salt, the structure may show the parent alone. Read-outs that look alike come from different tables or passages of the source. A value given as a limit tells only on which side of the number the result lay.

`C=CC(=O)Nc1cc(Nc2ncc(Cl)c(-c3cn(C)c4ccccc34)n2)c(OC(C)C)nc1N(C)CCN(C)C` [Comparative Example 2, reference compound]: in series [1] (both sexes, Sprague-Dawley, rat, plasma, po, 10 mg/kg, intragastric 10 mg/kg vs intravenous 4.0 mg/kg), the bioavailability (in general, dose-corrected exposure relative to a reference, in per cent) was found to be 8.5%. Moreover, the half-life (as a rule, how long it takes for the measured level to halve) in series [2] (both sexes, Sprague-Dawley, rat, iv, 4 mg/kg, dosage 4.0 mg/kg, elimination half-life) is 1.71 h. The AUC(0-t) in series [2] (both sexes, Sprague-Dawley, rat, iv, 4 mg/kg, dosage 4.0 mg/kg, read-out: AUC0-t) is 811 ng·h/mL. Also, the Cmax (in general, the highest concentration seen after dosing) in series [2] (both sexes, Sprague-Dawley, rat, iv, 4 mg/kg, dosage 4.0 mg/kg, read-out: Cmax) came out at 630 ng/mL.
As for `C=CC(=O)Nc1cc(Nc2nccc(-c3cn(C)c4ccccc34)n2)c(OCC(F)(F)F)nc1N(C)CCN(C)C` [Form I, Form I of the Mesylate Salt of N-{2-{[2-(dimethylamino)ethyl](methyl)amino}-6-(2,2,2-trifluoroethoxy)-5-{[4-(1-methyl-1H-indol-3-yl)pyrimidin-2-yl]amino}pyridin-3-yl}acrylamide], the half-life in series [1] (both sexes, Sprague-Dawley, rat, plasma, po, 10 mg/kg, intragastric, dosage 10 mg/kg, elimination half-life) is 7.98 h; in series [2] (both sexes, Sprague-Dawley, rat, iv, 2.5 mg/kg, dosage 2.5 mg/kg, elimination half-life), 4.73 h. Also, the AUC(0-t) is 613 ng·h/mL in series [1] (both sexes, Sprague-Dawley, rat, plasma, po, 10 mg/kg, intragastric, dosage 10 mg/kg, plasma, read-out: AUC0-t) and 308 ng·h/mL in series [2] (both sexes, Sprague-Dawley, rat, iv, 2.5 mg/kg, dosage 2.5 mg/kg, read-out: AUC0-t). Further, the Cmax in series [1] (both sexes, Sprague-Dawley, rat, plasma, po, 10 mg/kg, intragastric, dosage 10 mg/kg, plasma, read-out: Cmax) came to 45.3 ng/mL; in series [2] (both sexes, Sprague-Dawley, rat, iv, 2.5 mg/kg, dosage 2.5 mg/kg, read-out: Cmax) it was 105 ng/mL. The “F (absolute bioavailability)” value in series [1] worked out at 49.8%. Moreover, the Solubility (commonly how much of the substance goes into solution per volume) was >100 mg/mL in series [3] (0.1N HCl, 25° C.); 29.05 mg/mL in series [3] (setting [4]); 0.02 mg/mL in series [3] (setting [5]). Also, the “solubilities compared with the compound of formula (I) of Example 1” value in series [3] was “remarkably better”.
For `C=CC(=O)Nc1cc(Nc2nccc(-c3cn(C)c4ccccc34)n2)c(OCC(F)(F)F)nc1N(C)CCN(C)C` [Form II, Form II of the Mesylate Salt of N-{2-{[2-(dimethylamino)ethyl](methyl)amino}-6-(2,2,2-trifluoroethoxy)-5-{[4-(1-methyl-1H-indol-3-yl)pyrimidin-2-yl]amino}pyridin-3-yl}acrylamide], the “F (absolute bioavailability)” value in series [1] is on record as 39.1%. Further, the results for the AUC(0-t) in series [1] (setting [6]) and in series [2] (dosage 2.5 mg/kg) were 566.3 ng·h/mL and 362.0 ng·h/mL, respectively. The Cmax in series [1] (setting [6]) worked out at 36.7 ng/mL; in series [2] (dosage 2.5 mg/kg), 125.4 ng/mL. In addition, in series [2] (dosage 2.5 mg/kg, elimination half-life), the T1/2 was 4.83 h. The Solubility in series [3] (0.1N HCl, 25° C.) was >100 mg/mL; in series [3] (setting [4]) it was 61.14 mg/mL; in series [3] (setting [5]), 0.02 mg/mL. Besides, the “solubilities compared with the compound of formula (I) of Example 1” value in series [3] was “remarkably better”.
As for `C=CC(=O)Nc1cc(Nc2nccc(-c3cn(C)c4ccccc34)n2)c(OCC(F)(F)F)nc1N(C)CCN(C)C` [Example 1, N-{2-{[2-(dimethylamino)ethyl](methyl)amino}-6-(2,2,2-trifluoroethoxy)-5-{[4-(1-methyl-1H-indol-3-yl)pyrimidin-2-yl]amino}pyridin-3-yl}acrylamide], the Solubility was >30 mg/mL in series [3] (0.1N HCl, 25° C.); 0.62 mg/mL (≈ 1090 µM) in series [3] (setting [4]); 0.0003 mg/mL (≈ 0.528 µM) in series [3] (setting [5]).
Consider `C=CC(=O)Nc1cc(Nc2nccc(-c3cn(C)c4ccccc34)n2)c(OC(C)C)nc1N(C)CCN(C)C` [Comparative Example 1, reference compound], for which the bioavailability in series [1] (both sexes, Sprague-Dawley, rat, plasma, po, 6 mg/kg, intragastric 6 mg/kg vs intravenous 3.0 mg/kg) stood at 8.9%. This compound showed a half-life in series [2] (both sexes, Sprague-Dawley, rat, iv, 3 mg/kg, dosage 3.0 mg/kg, elimination half-life) of 2.72 h. In addition, the AUC(0-t) in series [2] (both sexes, Sprague-Dawley, rat, iv, 3 mg/kg, dosage 3.0 mg/kg, read-out: AUC0-t) worked out at 438 ng·h/mL. Further, the peak concentration (Cmax) in series [2] (both sexes, Sprague-Dawley, rat, iv, 3 mg/kg, dosage 3.0 mg/kg, read-out: Cmax) was 328 ng/mL.
